# Measured values from patent publication US20100190846A1, “MICROBICIDAL AGENT AND MICROBICIDAL COMPOSITION” (priority 2006, published 2010).
# How the values were obtained:
# Test in all cases: Agar dilution method microbicidal test
# Type in all cases: cell-based
# Vibrio parahaemolyticus = tested on: Vibrio parahaemolyticus; as to Growth on agar plate: key: +: grew; −: did not grow
# Description: (§1) As microbicidal test method for trans-p-coumaric acid, 3-hydroxypyridine, p-hydroxybenzaldehyde and vanillin, the agar dilution method was employed.
# (§2) In agar dilution method, a solution in which a sample is dissolved is serially diluted several times, and each of the diluted sample solutions is mixed with agar medium to prepare plate agars having various sample concentration. Then bacteria is inoculated onto the plate agars. In cases where the sample has a microbicidal activity, the growth of the bacteria on the plates can be inhibited. The lowest concentration which can inhibit the growth of the bacteria is referred to as Minimum Inhibitory Concentration (MIC), thereby judging the degree of a microbicidal activity of the sample.
# (§3) First, 400 mg of sample was dissolved in 1 mL of DMSO to prepare 400 mg/mL sample solution. Then 0.5 mL of this 400 mg/mL sample solution was diluted 2-fold to prepare 200 mg/mL sample solution. In the same manner, sample solutions of 100 mg/mL, 50.0 mg/mL, and 25.0 mg/mL were prepared. In addition, 300 mg/mL sample solution was prepared. Thereafter, 0.2 mL of these sample solutions each was mixed with 19.8 mL of BHI (Brain Heart Infusion Agar, Becton Dickinson, MD) medium, thereby preparing agar plates having the sample concentration of 4.0 mg/mL, 3.0 mg/mL, 2.0 mg/mL, 1.0 mg/mL, 0.5 mg/mL, and 0.25 mg/mL in dishes. […] Sterilized water was used for dissolving catechin, because catechin was insoluble in DMSO.
# (§4) As test bacteria, 13 kinds of bacteria, i.e., Streptococcus pneumoniae, Streptococcus pyogenes, Enterococcus faecalis, Staphylococcus aureus, Escherichia coli, Salmonella sp., Yersinia enterocolitica, Vibrio parahaemolyticus, Pseudomonas aeruginosa, Bacillus cereus, Bacillus subtilis MB-32, Bacillus subtilis ATCC6633, and Candida sp., were used. These bacteria each was mixed with 2 mL of sterilized MHB^R liquid medium (Mueller Hinton Broth^R, Becton Dickinson, MD) to prepare bacterial suspension having turbidity 1 (bacterial concentration 10^8/mL). Previously, small test tubes were set into each cell of a grating and sterilized, and 1 mL of 13 bacterial suspensions were added into the small test tubes set in the grating, respectively. By using a microplanter (SAKUMA, model: MIT-P), 10 μL aliquot was collected from each test tube set in the grating and transferred to other test tube, and the transferred bacterial suspensions were diluted 100-fold (bacterial concentration 10^6/mL).
# (§5) By using the microplanter, 10 μL (bacterial number […]) of this bacterial suspension was inoculated onto the plates containing the sample solution of various concentrations. The plates were incubated for 18 hours in an incubator at 37° C., and then a microbicidal activity of each compound was assessed.
# Salmonella sp. = tested on: Salmonella sp. Also: key: +: grew; −: did not grow.
# Description: as §1, §2, §3, §4, §5
# Yersinia enterocolitica = tested on: Yersinia enterocolitica; as to Growth on agar plate: key: +: grew; −: did not grow
# Description: as §1, §2, §3, §4, §5
# Staphylococcus aureus = tested on: Staphylococcus aureus; as to Growth on agar plate: key: +: grew; −: did not grow
# Description: as §1, §2, §3, §4, §5
# Candida sp. = tested on: Candida sp. As to Growth on agar plate: key: +: grew; −: did not grow.
# Description: as §1, §2, §3, §4, §5
# Bacillus subtilis MB-32 = tested on: Bacillus subtilis MB-32; also: key: +: grew; −: did not grow
# Description: as §1, §2, §3, §4, §5
# Enterococcus faecalis = tested on: Enterococcus faecalis; also: key: +: grew; −: did not grow
# Description: as §1, §2, §3, §4, §5
# Streptococcus pyogenes = tested on: Streptococcus pyogenes; as to Growth on agar plate: key: +: grew; −: did not grow
# Description: as §1, §2, §3, §4, §5
# Streptococcus pneumoniae = tested on: Streptococcus pneumoniae; as to Growth on agar plate: key: +: grew; −: did not grow
# Description: as §1, §2, §3, §4, §5
# Bacillus cereus = tested on: Bacillus cereus; as to Growth on agar plate: key: +: grew; −: did not grow
# Description: as §1, §2, §3, §4, §5
# Escherichia coli = tested on: Escherichia coli; also: key: +: grew; −: did not grow
# Description: as §1, §2, §3, §4, §5
# [1] = tested on: Bacillus subtilis ATCC6633; as to Growth on agar plate: key: +: grew; −: did not grow
# Description: as §1, §2, §3, §4, §5
# Pseudomonas aeruginosa = tested on: Pseudomonas aeruginosa; also: key: +: grew; −: did not grow
# Description: as §1, §2, §3, §4, §5
# [2] = BHI agar, 37° C., 18 hours, read-out: MIC
structure (smiles),measurement,setting,value
"O=C(O)/C=C/c1ccc(O)cc1 [trans-p-Coumaric Acid, trans-p-coumaric acid]",activity (in words),Vibrio parahaemolyticus,had an activity
same,Growth on agar plate,Vibrio parahaemolyticus; 0.25 mg/mL,+
same,Growth on agar plate,Vibrio parahaemolyticus; 0.5 mg/mL,+
same,Growth on agar plate,Vibrio parahaemolyticus; 1.0 mg/mL,+
same,Growth on agar plate,Vibrio parahaemolyticus; 2.0 mg/mL,+
same,Growth on agar plate,Vibrio parahaemolyticus; 3.0 mg/mL,−
same,Growth on agar plate,Vibrio parahaemolyticus; 4.0 mg/mL,−
same,MIC,Vibrio parahaemolyticus; [2],3000 µg/mL
same,Growth on agar plate,Salmonella sp.; 0.25 mg/mL,+
same,Growth on agar plate,Salmonella sp.; 0.5 mg/mL,+
same,Growth on agar plate,Salmonella sp.; 1.0 mg/mL,+
same,Growth on agar plate,Salmonella sp.; 2.0 mg/mL,+
same,Growth on agar plate,Salmonella sp.; 3.0 mg/mL,+
same,Growth on agar plate,Salmonella sp.; 4.0 mg/mL,+
same,activity (in words),Yersinia enterocolitica,had an activity
same,Growth on agar plate,Yersinia enterocolitica; 0.25 mg/mL,+
same,Growth on agar plate,Yersinia enterocolitica; 0.5 mg/mL,+
same,Growth on agar plate,Yersinia enterocolitica; 1.0 mg/mL,+
same,Growth on agar plate,Yersinia enterocolitica; 2.0 mg/mL,+
same,Growth on agar plate,Yersinia enterocolitica; 3.0 mg/mL,+
same,Growth on agar plate,Yersinia enterocolitica; 4.0 mg/mL,−
same,MIC,Yersinia enterocolitica; [2],4000 µg/mL
same,activity (in words),Staphylococcus aureus,had an activity
same,Growth on agar plate,Staphylococcus aureus; 0.25 mg/mL,+
same,Growth on agar plate,Staphylococcus aureus; 0.5 mg/mL,+
same,Growth on agar plate,Staphylococcus aureus; 1.0 mg/mL,+
same,Growth on agar plate,Staphylococcus aureus; 2.0 mg/mL,+
same,Growth on agar plate,Staphylococcus aureus; 3.0 mg/mL,+
same,Growth on agar plate,Staphylococcus aureus; 4.0 mg/mL,−
same,MIC,Staphylococcus aureus; [2],4000 µg/mL
same,activity (in words),Candida sp.,had an activity
same,Growth on agar plate,Candida sp.; 0.25 mg/mL,+
same,Growth on agar plate,Candida sp.; 0.5 mg/mL,+
same,Growth on agar plate,Candida sp.; 1.0 mg/mL,+
same,Growth on agar plate,Candida sp.; 2.0 mg/mL,+
same,Growth on agar plate,Candida sp.; 3.0 mg/mL,−
same,Growth on agar plate,Candida sp.; 4.0 mg/mL,−
same,MIC,Candida sp.; [2],3000 µg/mL
same,Growth on agar plate,Bacillus subtilis MB-32; 0.25 mg/mL,+
same,Growth on agar plate,Bacillus subtilis MB-32; 0.5 mg/mL,+
same,Growth on agar plate,Bacillus subtilis MB-32; 1.0 mg/mL,+
same,Growth on agar plate,Bacillus subtilis MB-32; 2.0 mg/mL,+
same,Growth on agar plate,Bacillus subtilis MB-32; 3.0 mg/mL,+
same,Growth on agar plate,Bacillus subtilis MB-32; 4.0 mg/mL,+
same,Growth on agar plate,Enterococcus faecalis; 0.25 mg/mL,+
same,Growth on agar plate,Enterococcus faecalis; 0.5 mg/mL,+
same,Growth on agar plate,Enterococcus faecalis; 1.0 mg/mL,+
same,Growth on agar plate,Enterococcus faecalis; 2.0 mg/mL,+
same,Growth on agar plate,Enterococcus faecalis; 3.0 mg/mL,+
same,Growth on agar plate,Enterococcus faecalis; 4.0 mg/mL,+
same,activity (in words),Streptococcus pyogenes,had an activity
same,Growth on agar plate,Streptococcus pyogenes; 0.25 mg/mL,+
same,Growth on agar plate,Streptococcus pyogenes; 0.5 mg/mL,+
same,Growth on agar plate,Streptococcus pyogenes; 1.0 mg/mL,+
same,Growth on agar plate,Streptococcus pyogenes; 2.0 mg/mL,+
same,Growth on agar plate,Streptococcus pyogenes; 3.0 mg/mL,−
same,Growth on agar plate,Streptococcus pyogenes; 4.0 mg/mL,−
same,MIC,Streptococcus pyogenes; [2],3000 µg/mL
same,activity (in words),Streptococcus pneumoniae,had an activity
same,Growth on agar plate,Streptococcus pneumoniae; 0.25 mg/mL,+
same,Growth on agar plate,Streptococcus pneumoniae; 0.5 mg/mL,+
same,Growth on agar plate,Streptococcus pneumoniae; 1.0 mg/mL,+
same,Growth on agar plate,Streptococcus pneumoniae; 2.0 mg/mL,−
same,Growth on agar plate,Streptococcus pneumoniae; 3.0 mg/mL,−
same,Growth on agar plate,Streptococcus pneumoniae; 4.0 mg/mL,−
same,MIC,Streptococcus pneumoniae; [2],2000 µg/mL
same,activity (in words),Bacillus cereus,had an activity
same,Growth on agar plate,Bacillus cereus; 0.25 mg/mL,+
same,Growth on agar plate,Bacillus cereus; 0.5 mg/mL,+
same,Growth on agar plate,Bacillus cereus; 1.0 mg/mL,+
same,Growth on agar plate,Bacillus cereus; 2.0 mg/mL,+
same,Growth on agar plate,Bacillus cereus; 3.0 mg/mL,−
same,Growth on agar plate,Bacillus cereus; 4.0 mg/mL,−
same,MIC,Bacillus cereus; [2],3000 µg/mL
same,Growth on agar plate,Escherichia coli; 0.25 mg/mL,+
same,Growth on agar plate,Escherichia coli; 0.5 mg/mL,+
same,Growth on agar plate,Escherichia coli; 1.0 mg/mL,+
same,Growth on agar plate,Escherichia coli; 2.0 mg/mL,+
same,Growth on agar plate,Escherichia coli; 3.0 mg/mL,+
same,Growth on agar plate,Escherichia coli; 4.0 mg/mL,+
same,MIC,"[1]; ATCC6633, Bacillus subtilis ATCC 6633, BHI agar, 37° C., 18 hours, read-out: MIC",3000 µg/mL
same,activity (in words),[1]; Bacillus subtilis ATCC6633,had an activity
same,Growth on agar plate,"[1]; Bacillus subtilis ATCC 6633, 0.25 mg/mL",+
same,Growth on agar plate,"[1]; Bacillus subtilis ATCC 6633, 0.5 mg/mL",+
same,Growth on agar plate,"[1]; Bacillus subtilis ATCC 6633, 1.0 mg/mL",+
same,Growth on agar plate,"[1]; Bacillus subtilis ATCC 6633, 2.0 mg/mL",+
same,Growth on agar plate,"[1]; Bacillus subtilis ATCC 6633, 3.0 mg/mL",−
same,Growth on agar plate,"[1]; Bacillus subtilis ATCC 6633, 4.0 mg/mL",−
same,Growth on agar plate,Pseudomonas aeruginosa; 0.25 mg/mL,+
same,Growth on agar plate,Pseudomonas aeruginosa; 0.5 mg/mL,+
same,Growth on agar plate,Pseudomonas aeruginosa; 1.0 mg/mL,+
same,Growth on agar plate,Pseudomonas aeruginosa; 2.0 mg/mL,+
same,Growth on agar plate,Pseudomonas aeruginosa; 3.0 mg/mL,+
same,Growth on agar plate,Pseudomonas aeruginosa; 4.0 mg/mL,+
